The nature of series [1]: Storage of phosphate buffered solution. It is filed as physicochemical. To be noted: 0.33-33 mg/mL in 50 mM sodium phosphate buffer, 2-8° C. As for the experimental part:
The resultant solution can be stored at 2-8° C. for up to 4 weeks.

A short description of series [2]: Solubility of acetate form of SEQ ID NO: 1 in various media. It is filed as physicochemical. As for the experimental part:
An acetate form of SEQ ID NO: 1 prepared according to Example 1 was evaluated for solubility under various conditions.

A short description of series [3]: Dog PK Study: single PO dose of tablets/solution. The settings on record: peptide 10 mg/Kg, NaC10 50 mg/Kg.
Procedure: Poloxamer P188 was also assessed, in combination with NaCl0 with the aim of determining potential synergism. […] Control tablet cores (immediate-release) without the absorption enhancers were also manufactured and dosed as control in the study.
Following dosing of tablets, 10 mL additional water was given. The normal dry diet was returned 2 hours post-dose.
In series [4] the test system is IL-23-induced IL-17A secretion. Kind of series: In vitro rat whole blood assay of IL-23-induced IL-17A secretion. It is filed as cell-based. The settings on record: as quoted in Example 12.
Series [5] in a line: Rat PK Study 2: effect of NaC10 concentration, IC injection. To be noted: peptide 10 mg/Kg. It is filed as in vivo, rats. An excerpt: In this example, the effect of the concentration of NaCl0 was studied.

On to `CC(=O)NCCCC[C@@H]1NC(=O)[C@H](Cc2c[nH]c3c(C)cccc23)NC(=O)[C@H]([C@@H](C)O)NC(=O)[C@H](CC(N)=O)NC(=O)[C@@H](NC(C)=O)C(C)(C)SSC(C)(C)[C@@H](C(=O)N[C@@H](Cc2ccc(OCCN)cc2)C(=O)N[C@@H](Cc2ccc3ccccc3c2)C(=O)NC2(C(=O)N[C@@H](CCC(=O)O)C(=O)N[C@@H](CC(N)=O)C(=O)N[C@@H](Cc3cccnc3)C(=O)N(C)CC(N)=O)CCOCC2)NC1=O` [Acetate Form of SEQ ID NO: 1], for which the “Storage time of solution” value in series [1] is on record as “up to 4 weeks”. In addition, the solubility was 95 mg/mL in series [2] (0.01 N HCl, aqueous buffer); 780 mg/mL in series [2] (0.1 N HCl, aqueous buffer); over 870 mg/mL in series [2] (0.1 N NaOH, aqueous buffer); over 220 mg/mL in series [2] (aqueous buffer, Borate buffer pH 9); 270 mg/mL in series [2] (aqueous buffer, Citrate buffer pH 2); 6.9 mg/mL in series [2] (aqueous buffer, Citrate buffer pH 5). For the same compound, the solubility in series [2] (aqueous buffer, Phosphate buffer pH 12) was over 440 mg/mL; in series [2] (aqueous buffer, phosphate buffer pH 7) it was 7.5 mg/mL; in series [2] (water) it was 35 mg/mL. In series [3], the “effect of NaC10 on systemic exposure, all tablets” value is reported as “increased”. Also, in series [4], the “IC50 values presented in Table 14” value is 0.10 to 0.47 ng/mL. The half-inhibitory concentration (IC50) in series [4] (read-out: IC50 values presented in Table 14) was 0.054 to 0.5 nM. For the same compound, the “increase of systemic exposure given by NaC10” value in series [5] (NaC10 20 mg/Kg) is given as “minimal”. The “absorption enhancement by NaC10” value in series [5] (NaC10 50 mg/Kg) is listed as “highest absorption enhancement”. For the same compound, the “oral bioavailability on increasing NaC10” value in series [5] (NaC10 100 mg/Kg or 200 mg/Kg) is “did not further increase”. Moreover, the “effect of NaC10 on systemic exposure” value in series [5] (all NaC10 concentrations tested (20, 50, 200 mg/Kg)) is reported as “increased”.

By solubility is commonly meant the concentration that dissolves in the medium under given conditions. Lower therefore signals little dissolved substance. Usually IC50 stands for the concentration that inhibits the measured activity by half.
